Data published in the supplement of paper PMC6288085.

Tests used:
[1] = tested on: Caenorhabditis elegans N2; assay: food intake (delta OD600 day1-day4, bacterial clearance) (OD600 units); higher = more food eaten; conditions: genotype: wt, 72 h
[2] = tested on: Caenorhabditis elegans; assay: as above; conditions: 72 h
Procedure: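 C. elegans N2 or ser-5(vq1) knockout adults in 96-well plates treated with olanzapine, quetiapine, ziprasidone or serotonin over a dose range. Food intake was measured as bacterial clearance, delta OD600 from day 1 to day 4 per well (14-21 replicate wells of 5-15 animals).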

CN1CCN(C2=Nc3ccccc3Oc3ccc(Cl)cc32)CC1 [Loxapine]
[1]
Conditions	food intake
0.05 µM	0.0139
0.5 µM	0.0143
5 µM	0.0196
10 µM	0.0212
20 µM	0.0217
50 µM	0.0234
100 µM	0.023
200 µM	0.0195

Cc1cc2c(s1)Nc1ccccc1N=C2N1CCN(C)CC1 [Olanzapine]
food intake, [2]
Conditions	0.5 µM	5 µM	20 µM	50 µM	100 µM	200 µM
genotype: ser-5(vq1)	0.0069	0.00729	0.0081	0.00845	0.00859	0.00839
genotype: wt	0.00731	0.00919	0.0102	0.0117	0.0138	0.0148

[1]
Conditions	food intake
0.05 µM	0.0155
0.5 µM	0.0153
5 µM	0.0152
10 µM	0.0159
20 µM	0.015
50 µM	0.0149
100 µM	0.0184
200 µM	0.0186

CN(C)CCCN1c2ccccc2Sc2ccc(Cl)cc21 [Chlorpromazine]
[1]
Conditions	food intake
0.05 µM	0.0145
0.1 µM	0.0149
0.2 µM	0.0171
0.5 µM	0.0191
0.75 µM	0.0204
1 µM	0.0201
2 µM	0.0233
5 µM	0.0214

NCCc1c[nH]c2ccc(O)cc12 [Serotonin]
food intake, [2]
Conditions	100 µM	500 µM	1000 µM	2000 µM	5000 µM	10000 µM
genotype: ser-5(vq1)	0.00664	0.00869	0.0118	0.0155	0.0182	0.0182
genotype: wt	0.00773	0.00951	0.0142	0.0176	0.0199	0.0189

CN(C)CC/C=C1/c2ccccc2Sc2ccc(Cl)cc21 [Chlorprothixene]
[1]
Conditions	food intake
0.4 µM	0.0203
2 µM	0.0255
10 µM	0.0194

OCCOCCN1CCN(C2=Nc3ccccc3Sc3ccccc32)CC1 [Quetiapine]
food intake, [2]
Conditions	0.1 µM	3 µM	10 µM	30 µM	100 µM	200 µM
genotype: ser-5(vq1)	0.00593	0.00574	0.00662	0.00674	0.00602	0.0055
genotype: wt	0.00754	0.00775	0.00993	0.0118	0.0127	0.0103

[1]
Conditions	food intake
0.1 µM	0.00598
3 µM	0.00727
10 µM	0.00847
30 µM	0.0103
100 µM	0.0115
200 µM	0.0118

O=C1Cc2cc(CCN3CCN(c4nsc5ccccc45)CC3)c(Cl)cc2N1 [Ziprasidone]
food intake, [2]
Conditions	0.01 µM	0.03 µM	0.1 µM	0.3 µM	1 µM	3 µM
genotype: ser-5(vq1)	0.00508	0.00569	0.00662	0.00664	0.00712	0.0061
genotype: wt	0.00821	0.00974	0.0135	0.0153	0.0145	0.0145

[1]
Conditions	food intake
0.01 µM	0.00881
0.03 µM	0.0107
0.1 µM	0.0128
0.3 µM	0.0136
1 µM	0.0136
3 µM	0.0138

CN1CC2c3ccccc3Oc3ccc(Cl)cc3C2C1 (stereo not drawn) [Asenapine]
[1]
Conditions	food intake
0.01 µM	0.00861
0.03 µM	0.0107
0.1 µM	0.0122
0.3 µM	0.0127
1 µM	0.0127
3 µM	0.0112
